In patent US20010008892A1 (priority 1998, published 2001):
Like-named read-outs stand apart in the source and are kept apart here.

Assays:
[1] = tested on: HIV; test: Antiviral activity: inhibition of the cytopathic effect of HIV in MT4 cells; type: cell-based
Source text: (§1) The IC50 is the concentration of compound that gives 50% inhibition of the cytopathic effect of HIV. The LC50 is the concentration of compound at which 50% of the cells remain viable.

[2] = Cytotoxicity in MT4 cells (LC50, 50% of the cells remain viable); type: cell-based; conditions: human
Source text: as §1

[3] = target: HIV-1 protease (Human immunodeficiency virus type 1 group M subtype B, UniProt P04585); test: Fluorogenic assay for screening inhibitors of HIV protease; conditions: for inhibition at 0.0005 µM: pH 4.5, read-out: % Inhib. (0.5 nM); for % Inhib. (0.5 nM): compound concentration 0.5 nM, fluorogenic substrate 1.3 μM, pH 4.5, 30° C.
Method: A compound of the invention is dissolved in DMSO. A small aliquot is diluted with DMSO to 100 times the final concentration desired for testing. The test is carried out in a 6×50 mm tube in a total volume of 300 microliters. The final concentrations of the components in the reaction buffer are: 125 mM sodium acetate, 1 M sodium chloride, 5 mM dithiothreitol, 0.5 mg/ml bovine serum albumin, 1.3 μM fluorogenic substrate, 2% (v/v) dimethylsulfoxide, pH 4.5. After addition of inhibitor, the reaction mixture is placed in the fluorometer cell holder and incubated at 30° C. for several minutes. The reaction is initiated by the addition of a small aliquot of cold HIV protease. The fluorescence intensity (excitation 340 nm, emmision 490 nM) is recorded as a function of time. The reaction rate is determined for the first six to eight minutes. The observed rate is directly proportional to the moles of substrate cleaved per unit time. The percent inhibition is 100×(1- (rate in presence of inhibitor)/(rate in absence of inhibitor)).
The test compounds were then tested at a concentration of 0.5 nM.

[4] = tested on: MT4 cells; test: Cytotoxicity in MT4 cells (LC50, 50% of the cells remain viable); type: cell-based; conditions: MT4 cells; concentration at which 50% of the cells remain viable
Source text: as §1

[5] = Human immunodeficiency virus 1, MT4 cells, 50% inhibition of the cytopathic effect of HIV, read-out: EC50
[6] = MT4 cells, 50% inhibition of the cytopathic effect of HIV, read-out: EC50

Work on `CC(C)c1nc(CN(C)C(=O)N[C@H](C(=O)N[C@@H](Cc2ccccc2)[C@H](O)CN(C(C)C)S(=O)(=O)c2ccc(N)cc2)C(C)C)cs1` [Example 29, N′-[(1S)-1-[[[(1S,2R)-3-[[(4-Aminophenyl)sulfonyl](1-methylethyl)amino]-2-hydroxy-1-(phenylmethyl)propyl]amino]carbonyl]-2-methylpropyl]-N-methyl-N-[2-(1-methylethyl)-4-thiazolylmethyl]urea] yielded an EC50 [1, 5] of 0.175 µM, a CC50 [2] of 31.2 µM and an inhibition at 0.0005 µM [3] of 64%.

With `CC(C)[C@H](NC(=O)N(C)Cc1cncs1)C(=O)N[C@@H](Cc1ccccc1)[C@H](O)CN1CCN(Cc2cncs2)C[C@H]1C(=O)NC(C)(C)C` [Example 23, N′-[(1S)-1-[[[(1S,2R)-3-[(2S)-2-[[(1,1-Dimethylethyl)amino]carbonyl]-4-(5-thiazolylmethyl)-1-piperazinyl]-2-hydroxy-1-(phenylmethyl)propyl]amino]carbonyl]-2-methylpropyl]-N-methyl-N-(5-thiazolylmethyl)urea] the EC50 [1, 5] was 0.259 µM, the CC50 [2] was > 100 µM and the inhibition at 0.0005 µM [3] was 51%.

`CC(C)c1nc(CN(C)C(=O)N[C@H](C(=O)N[C@@H](Cc2ccccc2)[C@H](O)CN2CCN(Cc3ccccc3)C[C@H]2C(=O)NC(C)(C)C)C(C)C)cs1` [Example 13, N′-[(1S)-1-[[[(1S,2R)-3-[(2S)-2-[[(1,1-Dimethylethyl)amino]carbonyl]-4-(phenylmethyl)-1-piperazinyl]-2-hydroxy-1-(phenylmethyl)propyl]amino]carbonyl]-2-methylpropyl]-N-methyl-N-[2-(1-methylethyl)-4-thiazolylmethyl]urea] gave an EC50 [1, 5] of 0.048 µM, a CC50 [2] of 60.4 µM and an inhibition at 0.0005 µM [3] of 66%.

In the case of `CC(C)CN(C[C@@H](O)[C@H](Cc1ccccc1)NC(=O)[C@@H](NC(=O)N(C)Cc1csc(C(C)C)n1)C(C)C)C(=O)NC(C)(C)C` [Example 26], the EC50 ([1]; Human immunodeficiency virus 1, MT4) is reported as 0.817 µM, the CC50 ([2]; MT4 cells, concentration at which 50% of the cells remain viable, read-out: LC50 (the source's name)) is reported as 17.4 µM and the inhibition at 0.0005 µM [3] is reported as 42%.

With `CC(C)c1nc(COC(=O)N[C@H](C(=O)N[C@@H](Cc2ccccc2)[C@H](O)CN2CCN(Cc3ccncc3)C[C@H]2C(=O)NC(C)(C)C)C(C)C)cs1` [Example 7, 2-(1-Methylethyl)-4-thiazolylmethyl-[(1S)-1-[[[(1S,2R)-3-[(2S)-2-[[(1,1-dimethylethyl)amino]carbonyl]-4-(4-pyridinylmethyl)-1-piperazinyl]-2-hydroxy-1-(phenylmethyl)propyl]amino]carbonyl]-2-methylpropyl]carbamate] the EC50 [1, 6] was 0.017 µM, the CC50 [4] was 55.2 µM and the “% Inhib. (0.5 nM)” value [3] was 73%.

With `CC(C)c1ncc(COC(=O)N[C@H](C(=O)N[C@@H](Cc2ccccc2)[C@H](O)CN2C[C@H]3CCCC[C@H]3C[C@H]2C(=O)NC(C)(C)C)C(C)C)s1` [Example 30, 2-(1-Methylethyl)-5-thiazolylmethyl-[(1S)-1-[[[(1S,2R)-3-[(3S)-3-[[(1,1-dimethylethyl)amino]carbonyl](4aα,8aα)octahydro-2-isoquinolinyl]-2-hydroxy-1-(phenylmethyl)propyl]amino]carbonyl]-2-methylpropyl]carbamate] the EC50 [1, 6] was 0.02 µM, the CC50 [4] was 17.9 µM and the “% Inhib. (0.5 nM)” value [3] was 55%.

In the case of `CC(C)c1nc(CN(C)C(=O)N[C@H](C(=O)N[C@@H](Cc2ccccc2)[C@H](O)CN2CCN(Cc3cncs3)C[C@H]2C(=O)NC(C)(C)C)C(C)C)cs1` [Example 12, N′-[(1S)-1-[[[(1S,2R)-3-[(2S)-2-[[(1,1-Dimethylethyl)amino]carbonyl]-4-(5-thiazolylmethyl)-1-piperazinyl]-2-hydroxy-1-(phenylmethyl)propyl]amino]carbonyl]-2-methylpropyl]-N-methyl-N-[2-(1-methylethyl)-4-thiazolylmethyl]urea], the EC50 [1, 5] is reported as 0.013 µM, the CC50 [2] is reported as 70.3 µM and the inhibition at 0.0005 µM [3] is reported as 61%.

In the case of `CC(C)c1nc(COC(=O)N[C@H](C(=O)N[C@@H](Cc2ccccc2)[C@H](O)CN2CCN(Cc3ccc(F)cc3)C[C@H]2C(=O)NC(C)(C)C)C(C)C)cs1` [Example 3], the EC50 [1, 6] is reported as 0.021 µM, the CC50 [4] is reported as 15.7 µM and the “% Inhib. (0.5 nM)” value [3] is reported as 64%.

`COc1cc(CN2CCN(C[C@@H](O)[C@H](Cc3ccccc3)NC(=O)[C@@H](NC(=O)N(C)Cc3csc(C(C)C)n3)C(C)C)[C@H](C(=O)NC(C)(C)C)C2)ccc1O` [Example 14, N′-[(1S)-1-[[[(1S,2R)-3-[(2S)-2-[[(1,1-Dimethylethyl)amino]carbonyl]-4-[(4-hydroxy-3-methoxyphenyl)methyl]-1-piperazinyl]-2-hydroxy-1-(phenylmethyl)propyl]amino]carbonyl]-2-methylpropyl]-N-methyl-N-[2-(1-methylethyl)-4-thiazolylmethyl]urea] showed an EC50 [1, 5] of 0.041 µM, a CC50 [2] of 22.7 µM and an inhibition at 0.0005 µM [3] of 63%.

`CC(C)c1nc(CN(C)C(=O)N[C@H](C(=O)N[C@@H](Cc2ccccc2)[C@H](O)CN2CC[C@@H](OCc3cncs3)C[C@H]2C(=O)NC(C)(C)C)C(C)C)cs1` [Example 32, N′-[(1S)-1-[[[(1S,2R)-3-[(2S,4R)-2-[[(1,1-Dimethylethyl)amino]carbonyl]-4-(5-thiazolylmethoxy)-1-piperidinyl]-2-hydroxy-1-(phenylmethyl)propyl]amino]carbonyl]-2-methylpropyl]-N-methyl-N-[2-(1-methylethyl)-4-thiazolylmethyl]urea] showed an EC50 [1, 5] of 0.015 µM, a CC50 [2] of 64.1 µM and an inhibition at 0.0005 µM [3] of 66%.

For `CC(C)c1nc(COC(=O)N[C@H](C(=O)N[C@@H](Cc2ccccc2)[C@H](O)CN2CCN(Cc3cccc(O)c3)C[C@H]2C(=O)NC(C)(C)C)C(C)C)cs1` [Example 5, 2-(1-Methylethyl)-4-thiazolylmethyl-[(1S)-1-[[[(1S,2R)-3-[(2S)-2-[[(1,1-dimethylethyl)amino]carbonyl]-4-[4-(3-hydroxyphenyl)methyl]-1-piperazinyl]-2-hydroxy-1-(phenylmethyl)propyl]amino]carbonyl]-2-methylpropyl]carbamate], the EC50 [1, 6] was 0.04 µM, the CC50 [4] was 16.7 µM and the “% Inhib. (0.5 nM)” value [3] was 69%.

In the case of `CC(C)[C@H](NC(=O)OCc1cncs1)C(=O)N[C@@H](Cc1ccccc1)[C@H](O)CN1CCN(Cc2cncs2)C[C@H]1C(=O)NC(C)(C)C` [Example 25], the EC50 [1, 6] is reported as 0.057 µM, the CC50 [4] is reported as > 100 µM and the “% Inhib. (0.5 nM)” value [3] is reported as 45%.
